The values below come from US7868037B2 (PTC Therapeutics, Inc., priority 2004, dated 2011).

One series has as its system HCV replicon. The series is described as follows: microbe, parasite or virus in culture. The format is cell-based, hepatitis C virus. To be noted: Hepatitis C virus, read-out: Replicon IC50 μM. For orientation: Replicon systems follow genome replication, usually without infectious particles.
Series [1] relates to cap-dependent translation (pLuc). As to the kind of experiment: Western blot of Fluc reporter protein in pLuc cells. The series is classed as cell-based, human. To be noted: 20 hours, data not shown.

Some results are limits rather than exact numbers.

For `CCOc1ccc(-c2c(C#N)c3ccc(NC(=O)OC(C)(C)C)cc3n2CC)cc1` [Compound 832, [3-cyano-2-(4-ethoxy-phenyl)-1-ethyl-1H-indol-6-yl]-carbamic acid tert-butyl ester], the melting point (as a rule, the temperature of the solid-liquid transition) fell in the range of 206 to 207 °C. Moreover, the IC50 (usually the concentration that gives 50% inhibition) with HCV replicon was 0.5 to 2 µM. The matching figures for `CCOc1ccc(-c2c(C#N)c3ccc(N)cc3n2CC)cc1` [Compound 833, 6-amino-2-(4-ethoxyphenyl)-1-ethyl-1H-indole-3-carbonitrile]: 183 to 185 °C and 0.5 to 2 µM. Take `CCOc1ccc(-c2c(C#N)c3ccc(NS(=O)(=O)CC)cc3n2CC)cc1` [Compound 835, Ethanesulfonic acid [3-cyano-2-(4-ethoxyphenyl)-1-ethyl-1H-indol-6-yl]-amide]: the melting point fell in the range of 178 to 179 °C. For the same compound, the IC50 in the series with HCV replicon was in the range of 0.5 to 2 µM. The matching figures for `CCOC(=O)Nc1ccc2c(C#N)c(-c3ccc(OCC)cc3)n(CC)c2c1` [Compound 838, [3-cyano-2-(4-ethoxyphenyl)-1-ethyl-1H-indol-6-yl]-carbamic acid ethyl ester]: 193 to 194 °C and 0.5 to 2 µM. The like results for `CCNC(=O)Nc1ccc2c(C#N)c(-c3ccc(OCC)cc3)n(CC)c2c1` [Compound 839, 1-[3-cyano-2-(4-ethoxyphenyl)-1-ethyl-1H-indol-6-yl]-3-ethyl-urea] were, in that order, 249 to 250 °C and more than 2 µM.

Take `CCn1c(N2CCN(S(=O)(=O)C3CC3)CC2)c(C#N)c2ccc(C(F)(F)F)cc21` [Compound 842, 2-[4-(cyclopropylsulfonyl)piperazin-1-yl]-1-ethyl-6-(trifluoromethyl)-1H-indole-3-carbonitrile]: the melting point fell in the range of 170 to 171 °C. For the same compound, the IC50 in the series on HCV replicon was more than 2 µM. Consider `COc1ccc(C[C@H](N)C(=O)N[C@H]2[C@@H](O)[C@H](n3cnc4c(N(C)C)ncnc43)O[C@@H]2CO)cc1` [puromycin], for which the “cap-dependent protein production (pLuc) in Western blot” value in series [1] is on record as “inhibited”.
